# Active and inactive are the calls of the source. The calls are words filed in the database; no cut-off is given here.
# Key:
# MDA-MB-231 [1] = assay: Inhibition of Wnt/beta-Catenin signaling in drug-tolerant human MDA-MB-231/lapatinib cells assessed as reduction in cyclin D1 mRNA level at 20 uM incubated for 24 hrs by qRT-PCR analysis
# MDA-MB-231 [2] = assay: Antiproliferative activity against drug-tolerant human MDA-MB-231/lapatinib cells assessed as CD44+/CD24- cells measured at 20 uM after 24 hrs by MTT assay; assay type: functional
# MDA-MB-231 [3] = assay: Inhibition of cell stemness in human drug-tolerant MDA-MB-231/lapatinib cells assessed as inhibition of Kif4 expression at 20 uM after 24 hrs by qRT-PCR analysis; assay type: functional, cell-based
# [4] = Resistant factor, ratio of IC50 for antiproliferative activity against drug-tolerant human MDA-MB-231 cells to IC50 for human MDA-MB-231 cells; assay type: functional
# MDA-MB-231 [5] = assay: Inhibition of Wnt/beta-Catenin signaling in drug-tolerant human MDA-MB-231/lapatinib cells assessed as reduction in beta-catenin level at 20 uM incubated for 24 hrs by Western blot analysis
# MDA-MB-231 [6] = assay: Inhibition of colony formation in human drug-tolerant MDA-MB-231/lapatinib cells at 5 uM measured after 24 hrs; assay type: functional
# [7] = molecular target: T1, Epidermal growth factor receptor (Homo sapiens, UniProt P00533); assay: Inhibition of exogenous EGFR (unknown origin)
# T1 sequence (P00533 whole entry): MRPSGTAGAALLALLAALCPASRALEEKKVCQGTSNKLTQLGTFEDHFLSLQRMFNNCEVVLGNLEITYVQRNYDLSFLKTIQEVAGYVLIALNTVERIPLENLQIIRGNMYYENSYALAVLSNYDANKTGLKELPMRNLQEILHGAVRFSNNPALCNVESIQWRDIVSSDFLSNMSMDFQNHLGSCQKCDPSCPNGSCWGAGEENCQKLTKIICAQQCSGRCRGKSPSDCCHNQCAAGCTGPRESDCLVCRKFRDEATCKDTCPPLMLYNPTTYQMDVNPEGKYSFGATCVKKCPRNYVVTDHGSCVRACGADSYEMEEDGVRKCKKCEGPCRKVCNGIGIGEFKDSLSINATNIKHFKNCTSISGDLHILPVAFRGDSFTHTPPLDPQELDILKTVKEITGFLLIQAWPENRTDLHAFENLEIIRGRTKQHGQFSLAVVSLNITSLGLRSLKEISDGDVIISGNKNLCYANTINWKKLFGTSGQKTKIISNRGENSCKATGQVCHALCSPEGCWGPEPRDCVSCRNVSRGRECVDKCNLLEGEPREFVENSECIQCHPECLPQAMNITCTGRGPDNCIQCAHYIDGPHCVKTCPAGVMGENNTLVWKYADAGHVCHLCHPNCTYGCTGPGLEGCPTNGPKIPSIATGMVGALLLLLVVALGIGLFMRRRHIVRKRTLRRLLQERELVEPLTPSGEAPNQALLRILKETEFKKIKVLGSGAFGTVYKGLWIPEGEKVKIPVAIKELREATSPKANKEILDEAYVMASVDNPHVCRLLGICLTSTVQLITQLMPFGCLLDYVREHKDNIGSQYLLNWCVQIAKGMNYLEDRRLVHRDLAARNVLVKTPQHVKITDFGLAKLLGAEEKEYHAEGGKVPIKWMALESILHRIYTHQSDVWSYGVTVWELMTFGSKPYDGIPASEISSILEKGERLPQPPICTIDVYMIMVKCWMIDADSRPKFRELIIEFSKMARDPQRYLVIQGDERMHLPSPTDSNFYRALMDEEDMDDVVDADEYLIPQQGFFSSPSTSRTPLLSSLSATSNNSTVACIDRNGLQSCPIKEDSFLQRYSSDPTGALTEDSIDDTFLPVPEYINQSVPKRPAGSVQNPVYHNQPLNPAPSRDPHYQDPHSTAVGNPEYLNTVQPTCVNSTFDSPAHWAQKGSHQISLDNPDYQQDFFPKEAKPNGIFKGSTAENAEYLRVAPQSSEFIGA
# MDA-MB-231 [8] = assay: Induction apoptosis in MDA-MB-231/ lapatinib cells assessed as apoptotic cells at 20 uM measured after 24 hrs by propidium iodide staining based flow cytometric analysis; assay type: functional, cell-based; details: Homo sapiens
# MDA-MB-231 [9] = assay: Antiproliferative activity against human drug tolerant MDA-MB-231/lapatinib cells assessed as inhibition of cell growth in measured after 72 hrs by MTT assay; assay type: functional, cell-based; details: MDA-MB-231, 72 h
# [10] = molecular target: T1, Epidermal growth factor receptor; assay: Inhibition of human EGFR in human MDA-MB-231 cells assessed as inhibition of phosphorylation Akt1/2/3 at Ser473 of measured after 24 hrs by Western blot analysis; assay type: cell-based; details: dose 5-20 µM
# MDA-MB-231 [11] = assay: Inhibition of cell stemness in human drug-tolerant MDA-MB-231/lapatinib cells assessed as inhibition of OCT4 expression at 20 uM after 24 hrs by qRT-PCR analysis; assay type: functional, cell-based
# MDA-MB-231 [12] = assay: Inhibition of cell stemness in human drug-tolerant MDA-MB-231/lapatinib cells assessed as inhibition of SOX-2 expression at 20 uM after 24 hrs by qRT-PCR analysis; assay type: functional, cell-based
# MDA-MB-231 [13] = assay: Cell cycle arrest in human MDA-MB-231 cells assessed as accumulation at G0-G1phase at 20 uM incubated for 24 hrs by PI staining based flow cytometry; assay type: functional
# MDA-MB-231 [14] = assay: Inhibition of Wnt/beta-Catenin signaling in drug-tolerant human MDA-MB-231/lapatinib cells assessed as reduction in MMP7 mRNA level at 20 uM incubated for 24 hrs by qRT-PCR analysis; assay type: tissue-based
# [15] = molecular target: T1, Epidermal growth factor receptor; assay: Inhibition of human EGFR in human drug-tolerant MDA-MB-231/lapatinib cells assessed as inhibition of phosphorylation ERK1/2 at T202/Y204 of measured after 24 hrs by Western blot analysis; details: dose 5-20 µM
# MDA-MB-231 [16] = assay: Induction of apoptosis in drug-tolerant human MDA-MB-231 cells/lapatinib cells assessed as apoptotic rate at 20 uM measured after 24 hrs by flow cytometry; assay type: functional
# MDA-MB-231 [17] = assay: Inhibition of Wnt/beta-Catenin signaling in drug-tolerant human MDA-MB-231/lapatinib cells assessed as reduction in c-Myc mRNA level at 20 uM incubated for 24 hrs by qRT-PCR analysis
# [18] = molecular target: T2, Aldehyde dehydrogenase 1A1 (Homo sapiens, UniProt P00352); assay: Inhibition of ALDH1A1 in human drug-tolerant MDA-MB-231/lapatinib cells assessed as after 24 hrs
# T2 sequence (P00352 whole entry): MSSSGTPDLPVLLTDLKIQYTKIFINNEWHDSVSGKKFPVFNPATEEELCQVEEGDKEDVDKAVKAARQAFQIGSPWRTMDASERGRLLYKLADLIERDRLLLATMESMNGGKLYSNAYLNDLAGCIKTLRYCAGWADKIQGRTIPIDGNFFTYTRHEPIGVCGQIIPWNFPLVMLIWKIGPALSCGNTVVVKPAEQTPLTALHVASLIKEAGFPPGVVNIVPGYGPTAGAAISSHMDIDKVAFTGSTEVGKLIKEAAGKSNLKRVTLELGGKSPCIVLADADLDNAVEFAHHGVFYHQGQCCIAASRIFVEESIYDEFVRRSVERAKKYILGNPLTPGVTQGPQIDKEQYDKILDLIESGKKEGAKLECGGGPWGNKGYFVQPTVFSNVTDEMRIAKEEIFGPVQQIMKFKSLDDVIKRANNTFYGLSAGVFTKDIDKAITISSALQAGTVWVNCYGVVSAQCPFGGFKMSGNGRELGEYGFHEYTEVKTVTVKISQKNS
# MDA-MB-231 [19] = assay: Antiproliferative activity against human MDA-MB-231 cells assessed as inhibition of cell growth measured after 72 hrs by MTT assay; assay type: functional, cell-based; details: MDA-MB-231, 72 h
# MDA-MB-231 [20] = assay: Inhibition of cell invasion in human MDA-MB-231/lapatinib cells at 20 uM; assay type: functional
# MDA-MB-231 [21] = assay: Inhibition of cell stemness in drug-tolerant human MDA-MB-231/lapatinib cells assessed as inhibition of Jagged expression at 20 uM after 24 hrs by flow cytometry; assay type: functional, cell-based
# MDA-MB-231 [22] = assay: Inhibition of Wnt/beta-Catenin signaling in drug-tolerant human MDA-MB-231/lapatinib cells assessed as increase in nuclear expression of p-beta-catenin level at 20 uM incubated for 24 hrs by Western blot analysis
# MDA-MB-231 [23] = assay: Cell cycle arrest in human drug-tolerant MDA-MB-231/lapatinib cells assessed as accumulation at G0-G1phase at 20 uM incubated for 24 hrs by PI staining based flow cytometry; assay type: functional
# MDA-MB-231 [24] = assay: Inhibition of Wnt/beta-Catenin signaling in drug-tolerant human MDA-MB-231/lapatinib cells assessed as reduction in S100A4 mRNA level at 20 uM incubated for 24 hrs by qRT-PCR analysis
# [25] = Octanol/water partition coefficient, log P of the compound by shake flask method based thermodynamic solubility assay; assay type: physicochemical
# [26] = molecular target: T1, Epidermal growth factor receptor; assay: Inhibition of human EGFR phosphorylation in human drug-tolerant MDA-MB-231/lapatinib cells measured after 24 hrs by Western blot analysis; details: dose 5-20 µM
# [27] = molecular target: T1, Epidermal growth factor receptor; assay: Inhibition of human EGFR phosphorylation in human MDA-MB-231 cells measured after 24 hrs by Western blot analysis; assay type: cell-based; details: dose 5-20 µM
# MDA-MB-231 [28] = assay: Inhibition of Wnt/beta-Catenin signaling in drug-tolerant human MDA-MB-231/lapatinib cells assessed as reduction in p-GSK3beta level at 20 uM incubated for 24 hrs by Western blot analysis
# [29] = molecular target: T1, Epidermal growth factor receptor; assay: Inhibition of human EGFR in human MDA-MB-231 cells assessed as inhibition of phosphorylation ERK1/2 at T202/Y204 of measured after 24 hrs by Western blot analysis; assay type: cell-based; details: dose 5-20 µM
# MDA-MB-231 [30] = assay: Inhibition of cell stemness in drug-tolerant human MDA-MB-231/lapatinib cells assessed as inhibition of Notch expression at 20 uM after 24 hrs by flow cytometry; assay type: functional, cell-based
# MCF7 = assay: Antiproliferative activity against human MCF7 cells assessed as inhibition of cell growth measured after 72 hrs by MTT assay; assay type: functional, cell-based; details: MCF7, 72 h
# [31] = molecular target: T1, Epidermal growth factor receptor; assay: Inhibition of human EGFR in human drug-tolerant MDA-MB-231/lapatinib cells assessed as inhibition of phosphorylation Akt1/2/3 at Ser473 of measured after 24 hrs by Western blot analysis; details: dose 5-20 µM
# HUVEC = assay: Antiproliferative activity against human HUVEC cells assessed as inhibition of cell growth in measured after 72 hrs by MTT assay; assay type: cell-based
# MDA-MB-231 [32] = assay: Antiproliferative activity against drug-tolerant human MDA-MB-231/lapatinib cells assessed as CD44-positive cells measured after 24 hrs by MTT assay; assay type: functional, cell-based; details: MDA-MB-231, 24 h
# MDA-MB-231 [33] = assay: Inhibition of cell stemness in human drug-tolerant MDA-MB-231/lapatinib cells assessed as inhibition of CD44+/CD24- expression at 20 uM after 24 hrs by flow cytometry analysis; assay type: functional
# MDA-MB-231 [34] = assay: Inhibition of cell stemness in drug-tolerant human MDA-MB-231/lapatinib cells assessed as inhibition of ALDH1A1 expression at 20 uM after 24 hrs by flow cytometry; assay type: functional
compound,measurement,setting,value
CC(OC(=O)CCCC(=O)N(CCS(C)(=O)=O)Cc1ccc(-c2ccc3ncnc(Nc4ccc(OCc5cccc(F)c5)c(Cl)c4)c3c2)o1)c1cc2c(o1)C(=O)c1ccccc1C2=O (stereo unspecified),inhibition,MDA-MB-231 [1],Active
same,inhibition at 20 µM,MDA-MB-231 [2],52.2%
same,inhibition,MDA-MB-231 [3],Active
same,Ratio IC50,[4],0.82
same,inhibition,MDA-MB-231 [5],Active
same,inhibition at 5 µM,MDA-MB-231 [6],10.9%
same,IC50,[7],0.00736 µM
same,Activity,MDA-MB-231 [8],Active
same,IC50,MDA-MB-231 [9],1.69 µM
same,inhibition,[10],Active
same,inhibition,MDA-MB-231 [11],Active
same,inhibition,MDA-MB-231 [12],Active
same,Activity,MDA-MB-231 [13],Active
same,inhibition,MDA-MB-231 [14],Active
same,inhibition,[15],Dose-Dependent Effect
same,Activity,MDA-MB-231 [16],Active
same,inhibition,MDA-MB-231 [17],Active
same,IC50,[18],0.135 µM
same,IC50,MDA-MB-231 [19],2.04 µM
same,inhibition at 20 µM,MDA-MB-231 [20],77.3%
same,inhibition,MDA-MB-231 [21],Active
same,inhibition,MDA-MB-231 [22],Active
same,Activity,MDA-MB-231 [23],Active
same,inhibition,MDA-MB-231 [24],Active
same,logP,[25],2.15
same,inhibition,[26],Dose-Dependent Effect
same,inhibition,[27],Dose-Dependent Effect
same,inhibition,MDA-MB-231 [28],Active
same,inhibition,[29],Active
same,inhibition,MDA-MB-231 [30],Active
same,IC50,MCF7,3.86 µM
same,inhibition,[31],Dose-Dependent Effect
same,IC50,HUVEC,63.3 µM
same,IC50,MDA-MB-231 [32],2.03 µM
same,inhibition at 20 µM,MDA-MB-231 [33],2.03%
same,inhibition at 20 µM,MDA-MB-231 [34],71.2%

# Source: ChEMBL document CHEMBL5030535, “Conjugates Derived from Lapatinib Derivatives with Cancer Cell Stemness Inhibitors Effectively Reversed Drug Resistance in Triple-Negative Breast Cancer” (J Med Chem, 2021)
